Laboratory results as given in PubChem BioAssay (NCI).
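All cell lines were grown in 96-well plates and treated with compound for 48 hours. TGI is the concentration that stops growth completely.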

Tests used:
Assay in all cases: inhibition of tumour cell growth, NCI panel, 48 h
NCI-H23 lung = test system: NCI-H23 lung
A549 NSCLC = test system: A549 NSCLC
HT29 colon = test system: HT29 colon
MDA-N = test system: MDA-N
SK-OV-3 ovarian = test system: SK-OV-3 ovarian
OVCAR-8 ovarian = test system: OVCAR-8 ovarian
BT-549 breast = test system: BT-549 breast
CCRF-CEM leukemia = test system: CCRF-CEM leukemia
SF-295 CNS = test system: SF-295 CNS
TK-10 renal = test system: TK-10 renal
OVCAR-5 ovarian = test system: OVCAR-5 ovarian
NCI-H226 lung = test system: NCI-H226 lung
UACC-257 melanoma = test system: UACC-257 melanoma
MALME-3M melanoma = test system: MALME-3M melanoma
M14 melanoma = test system: M14 melanoma
RPMI-8226 leukemia = test system: RPMI-8226 leukemia
MDA-MB-435 = test system: MDA-MB-435
KM12 colon = test system: KM12 colon
SK-MEL-2 melanoma = test system: SK-MEL-2 melanoma
OVCAR-3 ovarian = test system: OVCAR-3 ovarian
HCC-2998 colon = test system: HCC-2998 colon
SN12C renal = test system: SN12C renal
U251 CNS = test system: U251 CNS
SF-539 CNS = test system: SF-539 CNS
COLO 205 colon = test system: COLO 205 colon
SNB-75 CNS = test system: SNB-75 CNS
786-0 renal = test system: 786-0 renal
SR leukemia = test system: SR leukemia
SF-268 CNS = test system: SF-268 CNS
HCT-116 colon = test system: HCT-116 colon
HL-60(TB) leukemia = test system: HL-60(TB) leukemia
MCF7 breast = test system: MCF7 breast
DU-145 prostate = test system: DU-145 prostate
MOLT-4 leukemia = test system: MOLT-4 leukemia
UACC-62 melanoma = test system: UACC-62 melanoma
NCI-H522 lung = test system: NCI-H522 lung
T-47D breast = test system: T-47D breast
PC-3 prostate = test system: PC-3 prostate
UO-31 renal = test system: UO-31 renal
LOX IMVI melanoma = test system: LOX IMVI melanoma
EKVX NSCLC = test system: EKVX NSCLC
NCI/ADR-RES ovarian = test system: NCI/ADR-RES ovarian
CAKI-1 renal = test system: CAKI-1 renal
SK-MEL-28 melanoma = test system: SK-MEL-28 melanoma
RXF 393 renal = test system: RXF 393 renal
SW-620 colon = test system: SW-620 colon
K-562 leukemia = test system: K-562 leukemia
ACHN renal = test system: ACHN renal
HCT-15 colon = test system: HCT-15 colon
SK-MEL-5 melanoma = test system: SK-MEL-5 melanoma
SNB-19 CNS = test system: SNB-19 CNS
OVCAR-4 ovarian = test system: OVCAR-4 ovarian
HOP-62 NSCLC = test system: HOP-62 NSCLC
HS 578T breast = test system: HS 578T breast
NCI-H460 lung = test system: NCI-H460 lung
HOP-92 NSCLC = test system: HOP-92 NSCLC
A498 renal = test system: A498 renal
IGROV1 ovarian = test system: IGROV1 ovarian

## COc1cc(N2C(=O)C(=O)C3(CCCCC3)C2=O)cc(OC)c1OC
NCI-H23 lung
  TGI: > 100 µM
A549 NSCLC
  TGI: > 100 µM
HT29 colon
  TGI: > 100 µM
MDA-N
  TGI: > 100 µM
SK-OV-3 ovarian
  TGI: > 100 µM
OVCAR-8 ovarian
  TGI: > 100 µM
BT-549 breast
  TGI: > 100 µM
CCRF-CEM leukemia
  TGI: > 100 µM
SF-295 CNS
  TGI: > 100 µM
TK-10 renal
  TGI: > 100 µM
OVCAR-5 ovarian
  TGI: > 100 µM
NCI-H226 lung
  TGI: > 100 µM
UACC-257 melanoma
  TGI: > 100 µM
MALME-3M melanoma
  TGI: > 100 µM
M14 melanoma
  TGI: > 100 µM
RPMI-8226 leukemia
  TGI: > 100 µM
MDA-MB-435
  TGI: > 100 µM
KM12 colon
  TGI: > 100 µM
SK-MEL-2 melanoma
  TGI: > 100 µM
OVCAR-3 ovarian
  TGI: > 100 µM
HCC-2998 colon
  TGI: > 100 µM
SN12C renal
  TGI: > 100 µM
U251 CNS
  TGI: > 100 µM
SF-539 CNS
  TGI: > 100 µM
COLO 205 colon
  TGI: > 100 µM
SNB-75 CNS
  TGI: > 100 µM
786-0 renal
  TGI: > 100 µM
SR leukemia
  TGI: > 100 µM
SF-268 CNS
  TGI: > 100 µM
HCT-116 colon
  TGI: > 100 µM
HL-60(TB) leukemia
  TGI: > 100 µM
MCF7 breast
  TGI: > 100 µM
DU-145 prostate
  TGI: > 100 µM
MOLT-4 leukemia
  TGI: > 100 µM
UACC-62 melanoma
  TGI: > 100 µM
NCI-H522 lung
  TGI: > 100 µM
T-47D breast
  TGI: > 100 µM
PC-3 prostate
  TGI: > 100 µM
UO-31 renal
  TGI: > 100 µM
LOX IMVI melanoma
  TGI: > 100 µM
EKVX NSCLC
  TGI: > 100 µM
NCI/ADR-RES ovarian
  TGI: > 100 µM
CAKI-1 renal
  TGI: > 100 µM
SK-MEL-28 melanoma
  TGI: > 100 µM
RXF 393 renal
  TGI: > 100 µM
SW-620 colon
  TGI: > 100 µM
K-562 leukemia
  TGI: > 100 µM
ACHN renal
  TGI: > 100 µM
HCT-15 colon
  TGI: > 100 µM
SK-MEL-5 melanoma
  TGI: > 100 µM
SNB-19 CNS
  TGI: > 100 µM
OVCAR-4 ovarian
  TGI: > 100 µM
HOP-62 NSCLC
  TGI: > 100 µM

## COc1cc(/C=C2/SC(c3ccccc3)N(c3cccc(NC(C)=O)c3)C2=O)cc(OC)c1OC (stereo unspecified)
NCI-H23 lung
  TGI: > 100 µM
HS 578T breast
  TGI: > 100 µM
A549 NSCLC
  TGI: > 100 µM
HT29 colon
  TGI: > 100 µM
MDA-N
  TGI: > 100 µM
SK-OV-3 ovarian
  TGI: > 100 µM
OVCAR-8 ovarian
  TGI: > 100 µM
BT-549 breast
  TGI: > 100 µM
SF-295 CNS
  TGI: > 100 µM
TK-10 renal
  TGI: > 100 µM
OVCAR-5 ovarian
  TGI: > 100 µM
NCI-H226 lung
  TGI: > 100 µM
UACC-257 melanoma
  TGI: > 100 µM
MALME-3M melanoma
  TGI: > 100 µM
M14 melanoma
  TGI: > 100 µM
RPMI-8226 leukemia
  TGI: > 100 µM
MDA-MB-435
  TGI: > 100 µM
KM12 colon
  TGI: > 100 µM
OVCAR-3 ovarian
  TGI: > 100 µM
NCI-H460 lung
  TGI: > 100 µM
HCC-2998 colon
  TGI: > 100 µM
SN12C renal
  TGI: > 100 µM
SF-539 CNS
  TGI: > 100 µM
COLO 205 colon
  TGI: > 100 µM
786-0 renal
  TGI: > 100 µM
SR leukemia
  TGI: > 100 µM
SF-268 CNS
  TGI: > 100 µM
HCT-116 colon
  TGI: > 100 µM
HL-60(TB) leukemia
  TGI: > 100 µM
MCF7 breast
  TGI: > 100 µM
DU-145 prostate
  TGI: > 100 µM
MOLT-4 leukemia
  TGI: > 100 µM
UACC-62 melanoma
  TGI: > 100 µM
NCI-H522 lung
  TGI: 73.6 µM
T-47D breast
  TGI: > 100 µM
UO-31 renal
  TGI: > 100 µM
HOP-92 NSCLC
  TGI: > 100 µM
LOX IMVI melanoma
  TGI: > 100 µM
A498 renal
  TGI: > 100 µM
EKVX NSCLC
  TGI: > 100 µM
NCI/ADR-RES ovarian
  TGI: > 100 µM
CAKI-1 renal
  TGI: > 100 µM
SK-MEL-28 melanoma
  TGI: > 100 µM
RXF 393 renal
  TGI: > 100 µM
SW-620 colon
  TGI: > 100 µM
K-562 leukemia
  TGI: > 100 µM
ACHN renal
  TGI: > 100 µM
HCT-15 colon
  TGI: > 100 µM
SK-MEL-5 melanoma
  TGI: > 100 µM
SNB-19 CNS
  TGI: > 100 µM
OVCAR-4 ovarian
  TGI: > 100 µM
HOP-62 NSCLC
  TGI: > 100 µM

## Cc1ccc(C)c2c1C/C(=C\c1ccccc1C(=O)O)C2=O
NCI-H23 lung
  TGI: > 100 µM
HS 578T breast
  TGI: > 100 µM
A549 NSCLC
  TGI: > 100 µM
HT29 colon
  TGI: > 100 µM
MDA-N
  TGI: > 100 µM
OVCAR-8 ovarian
  TGI: > 100 µM
BT-549 breast
  TGI: > 100 µM
CCRF-CEM leukemia
  TGI: > 100 µM
SF-295 CNS
  TGI: > 100 µM
TK-10 renal
  TGI: > 100 µM
OVCAR-5 ovarian
  TGI: > 100 µM
NCI-H226 lung
  TGI: 80.5 µM
UACC-257 melanoma
  TGI: > 100 µM
MALME-3M melanoma
  TGI: > 100 µM
M14 melanoma
  TGI: > 100 µM
RPMI-8226 leukemia
  TGI: > 100 µM
MDA-MB-435
  TGI: > 100 µM
KM12 colon
  TGI: > 100 µM
OVCAR-3 ovarian
  TGI: > 100 µM
NCI-H460 lung
  TGI: > 100 µM
HCC-2998 colon
  TGI: > 100 µM
SN12C renal
  TGI: > 100 µM
U251 CNS
  TGI: > 100 µM
SF-539 CNS
  TGI: 97.7 µM
COLO 205 colon
  TGI: > 100 µM
SNB-75 CNS
  TGI: > 100 µM
786-0 renal
  TGI: > 100 µM
SR leukemia
  TGI: > 100 µM
SF-268 CNS
  TGI: > 100 µM
HCT-116 colon
  TGI: > 100 µM
HL-60(TB) leukemia
  TGI: > 100 µM
MCF7 breast
  TGI: > 100 µM
DU-145 prostate
  TGI: > 100 µM
MOLT-4 leukemia
  TGI: > 100 µM
UACC-62 melanoma
  TGI: > 100 µM
NCI-H522 lung
  TGI: > 100 µM
T-47D breast
  TGI: > 100 µM
PC-3 prostate
  TGI: > 100 µM
UO-31 renal
  TGI: > 100 µM
HOP-92 NSCLC
  TGI: > 100 µM
IGROV1 ovarian
  TGI: > 100 µM
LOX IMVI melanoma
  TGI: > 100 µM
A498 renal
  TGI: > 100 µM
EKVX NSCLC
  TGI: > 100 µM
NCI/ADR-RES ovarian
  TGI: > 100 µM
CAKI-1 renal
  TGI: > 100 µM
SK-MEL-28 melanoma
  TGI: > 100 µM
RXF 393 renal
  TGI: > 100 µM
SW-620 colon
  TGI: > 100 µM
K-562 leukemia
  TGI: > 100 µM
ACHN renal
  TGI: > 100 µM
HCT-15 colon
  TGI: > 100 µM
SK-MEL-5 melanoma
  TGI: > 100 µM
SNB-19 CNS
  TGI: > 100 µM
OVCAR-4 ovarian
  TGI: > 100 µM
HOP-62 NSCLC
  TGI: > 100 µM
